Test results reported in PubChem BioAssay (NCI).
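Compound exposure: 48 hours, 5 concentrations, 96-well plates. TGI denotes the concentration required for complete inhibition of growth.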

Key:
Experiment in all cases: NCI-60 cell line screen, 48 h
[1] = test system: HCC-2998 colon
[2] = test system: MCF7 breast
[3] = test system: SK-MEL-5 melanoma
[4] = test system: OVCAR-3 ovarian
[5] = test system: SN12C renal
[6] = test system: SNB-19 CNS
[7] = test system: MDA-MB-435
[8] = test system: SF-295 CNS
[9] = test system: HT29 colon
[10] = test system: HOP-92 NSCLC
[11] = test system: A549 NSCLC
[12] = test system: NCI-H460 lung
[13] = test system: SNB-75 CNS
[14] = test system: K-562 leukemia
[15] = test system: IGROV1 ovarian
[16] = test system: UACC-62 melanoma
[17] = test system: UO-31 renal
[18] = test system: CCRF-CEM leukemia
[19] = test system: RPMI-8226 leukemia
[20] = test system: A498 renal
[21] = test system: MDA-MB-231 breast
[22] = test system: HCT-116 colon
[23] = test system: NCI-H522 lung
[24] = test system: HCT-15 colon
[25] = test system: SR leukemia
[26] = test system: SK-MEL-28 melanoma
[27] = test system: HL-60(TB) leukemia
[28] = test system: PC-3 prostate
[29] = test system: DU-145 prostate
[30] = test system: COLO 205 colon
[31] = test system: U251 CNS
[32] = test system: RXF 393 renal
[33] = test system: ACHN renal
[34] = test system: OVCAR-4 ovarian
[35] = test system: TK-10 renal
[36] = test system: HOP-62 NSCLC
[37] = test system: 786-0 renal
[38] = test system: SF-539 CNS
[39] = test system: SW-620 colon
[40] = test system: HS 578T breast
[41] = test system: CAKI-1 renal
[42] = test system: SK-OV-3 ovarian
[43] = test system: EKVX NSCLC
[44] = test system: LOX IMVI melanoma
[45] = test system: NCI-H23 lung
[46] = test system: NCI-H226 lung
[47] = test system: SK-MEL-2 melanoma
[48] = test system: KM12 colon
[49] = test system: NCI/ADR-RES ovarian
[50] = test system: UACC-257 melanoma
[51] = test system: SF-268 CNS
[52] = test system: MALME-3M melanoma
[53] = test system: T-47D breast
[54] = test system: MOLT-4 leukemia
[55] = test system: OVCAR-8 ovarian
[56] = test system: M14 melanoma
[57] = test system: OVCAR-5 ovarian

Work on `CNC(=O)OC(COC)CN1CCN(c2ccccc2C)CC1` (configuration not stated) yielded a TGI [1] greater than 10 µM, a TGI [2] greater than 10 µM and a TGI [3] greater than 10 µM. For the same compound, the TGI [4] was greater than 10 µM, the TGI [5] was greater than 10 µM and the TGI [6] was greater than 10 µM. For the same compound, the TGI [7] was greater than 10 µM, the TGI [8] was greater than 10 µM and the TGI [9] was greater than 10 µM. The TGI [10] was greater than 10 µM, the TGI [11] was greater than 10 µM and the TGI [12] was greater than 10 µM. For the same compound, the TGI [13] was greater than 10 µM, the TGI [14] was greater than 10 µM and the TGI [15] was greater than 10 µM. For the same compound, the TGI [16] was greater than 10 µM, the TGI [17] was greater than 10 µM and the TGI [18] was greater than 10 µM. The TGI [19] was greater than 10 µM, the TGI [20] was greater than 10 µM and the TGI [21] was greater than 10 µM. It also gave a TGI [22] greater than 10 µM, a TGI [23] greater than 10 µM and a TGI [24] greater than 10 µM. For the same compound, the TGI [25] was greater than 10 µM, the TGI [26] was greater than 10 µM and the TGI [27] was greater than 10 µM. For the same compound, the TGI [28] was greater than 10 µM, the TGI [29] was greater than 10 µM and the TGI [30] was greater than 10 µM. It also gave a TGI [31] greater than 10 µM, a TGI [32] greater than 10 µM and a TGI [33] greater than 10 µM. The TGI [34] was greater than 10 µM, the TGI [35] was greater than 10 µM and the TGI [36] was greater than 10 µM. The TGI [37] was greater than 10 µM, the TGI [38] was greater than 10 µM and the TGI [39] was greater than 10 µM. It also gave a TGI [40] greater than 10 µM, a TGI [41] greater than 10 µM and a TGI [42] greater than 10 µM. For the same compound, the TGI [43] was greater than 10 µM, the TGI [44] was greater than 10 µM and the TGI [45] was greater than 10 µM. The TGI [46] was greater than 10 µM, the TGI [47] was greater than 10 µM and the TGI [48] was greater than 10 µM. For the same compound, the TGI [49] was greater than 10 µM, the TGI [50] was greater than 10 µM and the TGI [51] was greater than 10 µM. For the same compound, the TGI [52] was greater than 10 µM, the TGI [53] was greater than 10 µM and the TGI [54] was greater than 10 µM. The TGI [55] was greater than 10 µM and the TGI [56] was greater than 10 µM.
`CCOC(=O)c1c(N2CCCC2)ncn(C)c1=S` was tested, and the TGI [1] was greater than 100 µM, the TGI [2] was greater than 100 µM and the TGI [3] was greater than 100 µM. The TGI [4] was greater than 100 µM, the TGI [5] was greater than 100 µM and the TGI [6] was greater than 100 µM. The TGI [7] was greater than 100 µM, the TGI [8] was greater than 100 µM and the TGI [9] was greater than 100 µM. The TGI [10] was greater than 100 µM, the TGI [11] was greater than 100 µM and the TGI [12] was greater than 100 µM. The TGI [14] was greater than 100 µM, the TGI [15] was greater than 100 µM and the TGI [16] was greater than 100 µM. It also gave a TGI [17] greater than 100 µM, a TGI [18] greater than 100 µM and a TGI [19] greater than 100 µM. For the same compound, the TGI [20] was greater than 100 µM, the TGI [21] was greater than 100 µM and the TGI [22] was greater than 100 µM. The TGI [23] was greater than 100 µM, the TGI [24] was greater than 100 µM and the TGI [25] was greater than 100 µM. The TGI [26] was greater than 100 µM, the TGI [27] was greater than 100 µM and the TGI [28] was greater than 100 µM. For the same compound, the TGI [29] was greater than 100 µM, the TGI [30] was greater than 100 µM and the TGI [31] was greater than 100 µM. For the same compound, the TGI [57] was greater than 100 µM, the TGI [32] was greater than 100 µM and the TGI [33] was greater than 100 µM. For the same compound, the TGI [34] was greater than 100 µM, the TGI [35] was greater than 100 µM and the TGI [36] was greater than 100 µM. For the same compound, the TGI [37] was greater than 100 µM, the TGI [38] was greater than 100 µM and the TGI [39] was greater than 100 µM. It also gave a TGI [40] greater than 100 µM, a TGI [41] greater than 100 µM and a TGI [43] greater than 100 µM. It also gave a TGI [44] greater than 100 µM, a TGI [45] greater than 100 µM and a TGI [46] greater than 100 µM. It also gave a TGI [47] greater than 100 µM, a TGI [48] greater than 100 µM and a TGI [49] greater than 100 µM. It also gave a TGI [50] greater than 100 µM, a TGI [51] greater than 100 µM and a TGI [52] greater than 100 µM. The TGI [53] was greater than 100 µM, the TGI [54] was greater than 100 µM and the TGI [55] was greater than 100 µM. It also gave a TGI [56] greater than 100 µM.
`COc1ccc2c3c([nH]c2c1)CCN(Cc1ccccc1)C3` was tested, and the TGI [1] was 34.1 µM, the TGI [2] was 33.8 µM and the TGI [3] was 32.6 µM. The TGI [5] was 78.2 µM, the TGI [6] was 44.3 µM and the TGI [7] was 60.6 µM. For the same compound, the TGI [8] was 28.2 µM, the TGI [9] was greater than 100 µM and the TGI [10] was 25.6 µM. For the same compound, the TGI [11] was greater than 100 µM, the TGI [12] was 37.7 µM and the TGI [13] was greater than 100 µM. The TGI [14] was 51.3 µM, the TGI [15] was greater than 100 µM and the TGI [16] was greater than 100 µM. For the same compound, the TGI [17] was 39.6 µM, the TGI [18] was greater than 100 µM and the TGI [19] was 64.6 µM. For the same compound, the TGI [20] was 46.5 µM, the TGI [21] was 66.4 µM and the TGI [22] was greater than 100 µM. The TGI [24] was 39 µM, the TGI [25] was 40.3 µM and the TGI [26] was 38 µM. The TGI [27] was 35.8 µM, the TGI [29] was greater than 100 µM and the TGI [30] was 38.5 µM. The TGI [31] was 53.4 µM, the TGI [57] was 69 µM and the TGI [32] was 50.7 µM. It also gave a TGI [33] greater than 100 µM, a TGI [34] greater than 100 µM and a TGI [35] of 65.1 µM. For the same compound, the TGI [36] was 80.2 µM, the TGI [38] was 32.7 µM and the TGI [39] was 51.7 µM. It also gave a TGI [40] of 56.9 µM, a TGI [42] greater than 100 µM and a TGI [43] greater than 100 µM. The TGI [44] was 38 µM, the TGI [45] was greater than 100 µM and the TGI [46] was 73.2 µM. It also gave a TGI [48] of 70.5 µM, a TGI [49] of 98.3 µM and a TGI [50] of 42.5 µM. For the same compound, the TGI [51] was greater than 100 µM, the TGI [52] was 34.6 µM and the TGI [53] was 69.1 µM. The TGI [54] was 73.7 µM, the TGI [55] was greater than 100 µM and the TGI [56] was 34.8 µM.
